Assay results as given in patent US9656984B2, “PI3K/AKT/mTOR inhibitors and pharmaceutical uses thereof” (UNIVERSITE DE RENNES 1, priority 2013, dated 2017).

Experiments:
[1] = molecular target: mTORC2 (Homo sapiens, UniProt P42345); test: Immunoblot of mTORC2 substrate Akt-Ser473 in CEM cells; format: cell-based; design: endogenous in cells; host or cells: CEM cells; details: 2 hours, FIG. 16
Experimental: CEM cells (1·10^6 cells) were incubated with indicated concentrations of compound 25 for 2 hours and lysates of the cells were subjected to Western blot analysis. Inhibitory activity of compound 25 on mTORC1 substrates p70S6K-Thr389 and 4EBP1-Thr37 and 46 and on mTORC2 substrate Akt-Ser473 and on PDK1 substrate Akt-Thr308 was evaluated by immunoblotting. Total 4EBP1, p70S6K, Akt and […] serve as loading controls. The compounds of the invention and more particularly compound 25 may be competitive inhibitors of mTOR because they inhibit mTORC1 (4EBP1 and p70S6K) and mTORC2 substrates (AKT at S473) as shown in FIG. 16.
Immunoblots Excepted for immunoprecipitation experiments in which cells were lyzed with RIPA buffer, cells were lyzed for 30 min at 4° C. in Lysis buffer (25 mM HEPES pH 7.4, 1% v/v Triton X-100, 150 mM NaCl, 2 mM EGTA supplemented with a mix of protease inhibitors). Protein concentration was determined by the bicinchoninic acid method (Pierce, Rockford, Ill., USA) according to the manufacturer's protocol. Proteins were resolved by 8, 10 or 12% SDS-PAGE and transferred to a nitrocellulose membrane (GE Healthcare, Buckinghamshire, UK). The membrane was blocked 15 min with TBST (50 mM Tris, 160 mM NaCl, 0.05% v/v Tween 20, pH 7.4) containing 5% w/v dried skimmed milk (TBS™). Primary antibody was incubated overnight at 4° C. in TBS™. […]

[2] = test system: PI3K/AKT activity (AKT phosphorylation); test: PI3K/AKT/mTOR pathway inhibitory activity: level of AKT phosphorylation in CEM cells over time; format: cell-based, human; details: 10 μM, FIGS. 7 and 8
Experimental: The CEM cell was incubated with 10 μM of each mentioned compound of formula (I) for the indicated times and then cells were lysed and 100 μg of protein was loaded per line and resolved by SDS-PAGE. The levels of AKT phosphorylation (hallmark of PI3K activation) and total AKT (loading control) were analyzed by Western blot and the amount of AKT phosphorylation relative to the total amount of protein AKT was quantified by densitometric analysis, the intensity of each band was scanned and the level of AKT phosphorylation was reported to the amount of whole AKT and the percentage of phosphorylated-AKT was depicted.
Immunoblots Excepted for immunoprecipitation experiments in which cells were lyzed with RIPA buffer, cells were lyzed for 30 min at 4° C. in Lysis buffer (25 mM HEPES pH 7.4, 1% v/v Triton X-100, 150 mM NaCl, 2 mM EGTA supplemented with a mix of protease inhibitors). Protein concentration was determined by the bicinchoninic acid method (Pierce, Rockford, Ill., USA) according to the manufacturer's protocol. Proteins were resolved by 8, 10 or 12% SDS-PAGE and transferred to a nitrocellulose membrane (GE Healthcare, Buckinghamshire, UK). The membrane was blocked 15 min with TBST (50 mM Tris, 160 mM NaCl, 0.05% v/v Tween 20, pH 7.4) containing 5% w/v dried skimmed milk (TBS™). Primary antibody was incubated overnight at 4° C. in TBS™. The membrane was intensively washed (TBST) and then the peroxydase-labeled anti-mouse IgG1 or IgG2a (CliniSciences, Nanterre, France) was added for 45 min. Proteins were visualized with the enhanced chemiluminescence substrate kit (ECL RevelBIOt®, Ozyme, Saint Quentin en Yvelines, France).

[3] = test system: MDA-MB-231 cells; test: Boyden chamber cell migration, MDA-MB-231 stimulated with CD95L; format: cell-based, human; details: MDA-MB-231, 1 μM, CD95L 100 ng/ml, 24 hours, FIG. 17B
Experimental: (§1) TNBC (MDA-MB-231 and BT549) cell lines were pre-incubated for 1 hour in presence or absence of non-cytotoxic amount of compound 25 (1 μM) and then treated or untreated with CD95L (100 ng/ml) for 24 hours. Cell migration was analyzed using Boyden chamber assay. Migrating Giemsa-stained cells were lysed and absorbance was measured at a wavelength of 560 nm. Values represent the means±SEM of three independently performed experiments. *p<0.05 as calculated using two-tailed Mann-Whitney test.
(§2) After membrane hydration of Boyden chambers (Millipore, Molsheim, France) containing 8 μm pore membranes, 10^5 cells were added to the top chamber. The bottom chamber was filled with low serum (1%)-containing medium in the presence or absence of cl-CD95L (100 ng/ml). Breast cancer cells were incubated for 24 h. To quantify invasion, cells were fixed with methanol and stained with Giemsa. Stained cells were then removed from the top-side of the membrane using a cotton-tipped swab and five representative pictures for each insert were taken of the invading cells from the reverse side. For each experiment, invading cells were lysed and absorbance at 560 nm was measured.

[4] = test system: MCF-7 (ER-positive) breast tumor cell line; test: Cell death by MTT assay, MCF-7; format: cell-based, human; details: 24 hours, mean of four experiments
Experimental: The ER-positive breast tumor cell lines MCF-7 and T47-D and the HER2 positive breast tumor cell lines MDA-MB-453 and BT474 (also ER-positive) were incubated with the indicated concentration of each mentioned compound of formula (I) for 24 hours and then cell death was assessed using MTT assay.
For each cell line, the percentage of cell death (mean of four experiments for cell lines MCF-7 and T47-D, and two experiments for cell lines MDA-MB-453 and BT474) is given in view of the increasing concentration of each tested compound of the invention.
(§3) Cell viability was assessed using the 3-[4,5-dimethylthiazol-2-yl]-2,5-diphenyltetrazolium bromide (MTT) viability assay (1). In brief, cells (4×10^4 per well) were cultured for 20 h in flat-bottomed 96 well plates with various concentrations of the apoptosis inducer. Then 0.015 ml of MTT (5 mg/ml in PBS) was added to each well and incubated for 4 h at 37° C. Formazan salt precipitats were dissolved by adding 0.115 ml of isopropyl alcohol containing 1% formic acid (v/v), and the absorbance was measured at 570 nm.

[5] = molecular target: T1, mTOR protein regarding 243 human kinases (Homo sapiens, UniProt P42345); test: Kinome by KinaseProfiler; format: biochemical; details: 1 μM, FIG. 11
T1 construct: purchased

[6] = test system: TSC2^−/− AML (AngioMyoLipoma) cells; test: Cell viability by MTT assay on TSC2^−/− and TSC2^+/+ AML cells; format: cell-based, human; details: 16 hours, 1% fetal calf serum
Experimental: AML (AngioMyoLipoma) cells from a patient (generous gift from Dr M. Pende, Paris) were enriched for TSC2^−/− cells, as a model of tuberous sclerosis. These cells have been reconstituted with wild type TSC2 (TSC2^+/+). Cell proliferation was assessed in cells from angiomyolipomas and their counterparts reconstituted with wild type TSC2.
Cell viability was assessed by MTT assay. Cells were incubated for 16 hours in a 1% fetal calf serum-containing medium supplemented with the indicated concentrations of the two mTOR inhibitors, compound 25 or rapamycin (see FIGS. 14B and 14C). Data represent mean and standard deviation of three independent experiments.
as §3

[7] = test system: BT549 cells; test: Boyden chamber cell migration, BT549 stimulated with CD95L; format: cell-based, human; details: BT549, 1 μM, CD95L 100 ng/ml, 24 hours, FIG. 17A
Experimental: as §1, §2

O=[N+]([O-])C1=Cc2cc(Br)cc(Br)c2OC1c1ccc(Br)cc1 (centres unmarked) [Compound 25, 6,8-dibromo-2-(4-bromo-phenyl)-3-nitro-2H-chromene]
inhibitory activity on mTORC2 substrate (AKT at S473) [1]: inhibit
inhibitory activity on PI3K/AKT (level of AKT phosphorylation) [2]: very strong inhibitors
migration of tumor cells stimulated with CD95L [3]: abrogate
percentage of cell death ([4]; MCF-7, 6.25 μM): 47.86%
percentage of cell death ([4]; MCF-7, 12.5 μM): 63.54%
percentage of cell death ([4]; MCF-7, 25 μM): 76.72%
percentage of cell death ([4]; MCF-7, 50 μM): 94.09%
selectivity in kinome [5]: selectivity of compound 25 for the mTOR protein
sensitivity of TSC2^−/− cells versus wild type TSC2^+/+ cells (cell death, MTT) ([6]; FIG. 14B): more sensitive
efficiency to kill TSC2^−/− cells compared with rapamycin ([6]; FIGS. 14B and 14C): more efficient
migration of tumor cells stimulated with CD95L [7]: abrogate
